From patent US20130065314A1, “ALGAL TRANSFORMATION SYSTEMS, COMPOSITIONS AND METHODS” (PHYTOCENTRIC BIOTECH INC., priority 2011, published 2013)
Read-outs that look alike come from different tables or passages of the source.

What was measured:
[1] = tested on: C. reinhardtii (Nit1-305,cw-15); test: Transformation of algal cells with plasmid DNA and CPP, selection on Zeocin plates; format: cell-based, Chlamydomonas reinhardtii
Description: Transformation experiments were conducted. […] Cell culture was grown in 900 ml of SGII+NH4NO3 medium, divided in 3 aliquots into 500 ml Erlenmeyer flasks each containing 300 ml of the culture. The culture was grown for two days until the cell growth reached mid-log phase and cell density reached to 1×10^6 cells ml^−1 (OD at 680 nm=0.6-0.8). Cells were collected at 3000 rpm for 10 minutes to obtain 9×10^8 cells in total. In all transformation experiments for Chlamydomonas reinhardtii, SGII+NH4NO3 medium was used in downstream experimental steps. […] Cells were washed after grown in SGII-NH4NO3 medium to remove NH4 traces. Cells were divided into 3 aliquots each of 3×10^8 cells. Two aliquots of the harvested cells were treated with cell wall degrading enzymes one with cellulase from Aspergillus niger (Sigma, Canada) and the other with lysozyme from chicken egg white (Sigma, Canada).
Lysozyme treatment: Lysozyme from chicken white egg was purchased (Sigma-Aldrich, Canada). Enzymatic assay protocol was modified from Sigma-Aldrich product information publication. For cell lysis/cell wall disruption, use a freshly prepared lysozyme solution (10 mg/ml) in sterilized 10 mM Tris-HCL, pH 8.0. Add 25 μl of a freshly prepared lysozyme to the required number (−5.0×10^7) of cells/transformation reaction, mix by vortexing for 3 seconds. Incubate the lysis mixture for 15 minutes at 37° C. […] Centrifuge the cells and discard the supernatant containing lysozyme. To stop the reaction, wash the cells twice with media and collect the cells at 3000 rpm for 10 minutes. Proceed to downstream applications and/or transformation experiment.
Cellulase treatment: Cellulase (EC 3.2.1.4) was purchased from Sigma-Aldrich, Canada. Enzymatic assay protocol was modified from Sigma-Aldrich product information publication. Just before use, prepare solution containing 8 units/ml (26.7 mg/ml) of cellulase in sterilized cold distilled water. Add 500 μl of a freshly prepared cellulase solution to the required number (−5.0×10^7) of cells, immediately mix by swirling. Incubate the lysis mixture for 15 minutes at 37° C. […] Centrifuge the cells and discard the supernatant containing lysozyme. To stop the reaction, wash the cells twice and collect the cells at 3000 rpm for 10 minutes. Proceed to downstream applications and/or transformation experiment.
The third aliquot was not treated with any enzyme.
After enzymatic treatments, the cells were washed twice with the medium to stop the reaction. Cells of each aliquot were re-suspended in fresh medium (cell concentration=3×10^8ml^−1) and used 300 μl of cell suspension (−5×10^7 number of cell) in each transformation reaction. Cells were transferred to 15 ml Falcon tube containing sterilized 300 mg glass beads of 0.5 mm size. Just prior to starting the next step, 1 μg plasmid DNA and one of the four ATT(s) tested were mixed. One of the four ATT-plasmid mixtures were added to the algal cells and beads suspended in media. The cells, ATT and DNA mixture and the beads were vortexed for 15 seconds. 10 ml of medium was added to the transformation reaction, and the tubes were incubated overnight with shaking at 100 rpm in incubator to allow cell recovery and expression of the gene. The cell suspensions were transferred to fresh tubes to remove beads and cells were spun by centrifugation for 5 minutes at 3000 rpm. The cells were re-suspended in 2 ml of 0.5% agar medium by gentle pipetting and were plated on 2% agar medium supplemented with 10 μg ml^−1 Zeocin.

[2] = tested on: C. reinhardtii (Nit1-305,cw-15); test: PCR screening of transformant colonies (Zeocin specific primers); format: cell-based, Chlamydomonas reinhardtii; conditions: pSP124S linearized with KpnI, no pretreatment; 155 bp expected product (FIG. 11 panel A)
Description: Transformed colonies were picked from the selection plates and inoculated into liquid selection media to multiply cells to be used for genomic DNA isolation. Genomic DNA from 1×10^5 cells of untransformed algae and the transformants were isolated using DNeasy™ Blood & Tissue Kit (QIAGEN®). ReadyMix™ Taq PCR Reaction Mix with MgCl2 (Sigma, Canada) was used to prepare 20 μl PCR reactions. Thermal cycling conditions were initial denaturation at 95° C. for 5 minutes and 40 cycles of 95° C. for 30 s, 65° C. for 30 s and 72° C. for 1.5 min. A final primer extension cycle was performed at 72° C. for 10 min.

[3] = tested on: linearized plasmid DNA; test: Gel mobility shift assay of peptide plasmid DNA complex formation; conditions: 200 ng linearized plasmid DNA, 1% agarose gel
Description: Non-covalent attachment was tested using a gel mobility shift assay. The gel mobility shift assay was used to determine the minimum peptide concentration needed bind to plasmid DNA and cause it to shift during electrophoresis. Based on a peptide-DNA charge ratio calculation increasing concentrations of peptide were added to 200 ng of linearized plasmid DNA until the charge of the DNA was neutralized by the peptide causing a mobility shift in the DNA during electrophoresis in a 1% agarose gel.

[4] = pSP124S linearized with EcoRI, 0.5 mm bead disruption, Zeocin 10 μg/ml (FIG. 9)
[5] = pSP124S linearized with KpnI, 0.5 mm bead disruption, Zeocin 10 μg/ml (FIG. 8)

Substance: Tat (48-57) (GRKKRRQRRR) [ATT2]
- transformed colonies on selection plate [1, 4]: transformed
- transformed colonies on selection plate [1, 5]: transformed
- PCR product with Zeocin specific primers in transformant colonies [2]: Lane 7 and 8 are positive
- amount of peptide at which the shift occurred [3]: 80 ng

Substance: (Arg)9 (RRRRRRRRR) [ATT4]
- transformed colonies on selection plate [1, 4]: transformed
- transformed colonies on selection plate [1, 5]: transformed
- amount of peptide at which the shift occurred [3]: 120 ng

Substance: Transportan [ATT1]
- transformation rate compared with the other three peptides [1]: higher
- transformed colonies on selection plate [1]: transformed
- PCR product with Zeocin specific primers in transformant colonies [2]: Lane 1 is positive
- amount of peptide at which the shift occurred [3]: 339 ng
